In patent US20230210819A1, “USE OF BENZISOSELAZOLE DERIVATIVE FOR ANTI-CORONAVIRUS AND CONTROL OF INTERSTITIAL LUNG DISEASE (ILD) RELATED TO CORONAVIRUS” (SHANGHAI YUANXI MEDICINE CORP., priority 2020, published 2023):

What was measured:
Format in all cases: in vivo, C57 mice
[1] = Body weight, bleomycin-induced mice, 24-h modeling; conditions: for Body weight decreased by: day 1 to day 35
Experimental: (§1) Animals of 24-h modeling were randomly divided into 5 groups according to the table below, 3 animals per control group and 5 animals per test group.
(§2) Drug administration began 24 h or 7 d after modeling. […] The day of the first administration was counted as D1, the next day as D2, and so forth. The normal groups and Model groups were given 200 µL of normal saline daily by gavage administration.
All the animals were observed once daily during the experiment for death or dying, feces, ingestion, mental state and behavior and activity. Abnormalities were recorded in time. All the animals were weighed once before grouping and once before each dose.
(§3) In this experiment, 105 C57 mice were randomly selected and subjected to organ drip administration of a single dose of bleomycin at 2.5 mg/kg for 24 h or 7 d for induction. After 7 days of induction, 3 model mice were randomly selected and dissected to determine whether the modeling was successful. After modeling, the survival of the mice was recorded. The living states of the mice were observed and their body weight was measured at a fixed time.
(§4) A normal control group comprised 3 mice.

[2] = tested on: bleomycin-induced mouse lung disease model; test: Lung and spleen coefficients, 24-h modeling
Experimental: as §1, §2
Method: after being euthanized, the animals were dissected, and the heart, liver, spleen, lung and kidney were weighed.
as §3, §4

[3] = tested on: bleomycin-induced mouse lung disease model; test: Blood gas analysis, 7-d modeling; conditions: for BEect / HCO3^- / PCO2: arterial blood after administration ended
Experimental: (§5) Animals of 7-d modeling were randomly divided into 7 groups according to the table below, 6 animals per control group and 12 animals per test group.
as §2
1. After being anaesthetized, a mouse was fixed to a board in a supine position.
2. After the skin was disinfected with alcohol, a midline cut of about 1.5 cm was made downward in the skin of the neck. The connective tissue between the sternohyoid muscle and the stemothyroid muscle was separated along the anterior border of the sternomastoid muscle with a tissue forceps. The pulsating common carotid artery could be seen on the deep right side of the trachea. A common carotid artery of about 1.5 cm in length was separated. The distal end was ligated with silk thread, and the proximal end was clipped with an artery clip and threaded with a silk thread for later use. The mouse board was placed under a dissecting microscope, and a V-shaped centripetal incision was gently made in a site near the distal end of the artery with a microscopy scissor. A PE microcatheter was inserted into the artery and fixed by making a knot with silk thread. The artery clip was removed, and 0.1-0.2 mL of blood was collected with a 1 mL syringe. The proximal end was clipped with an artery clip, and the syringe was removed. The blood was immediately analyzed on an AbboTTi-STAT blood gas microanalyzer.
In a blood gas analysis, the H^+ concentration in the blood and gases (mainly CO2 and O2) dissolved in the blood can be determined to directly reflect the function of pulmonary ventilation and the acid-base balance state. They are used to determine in the organism whether the acid-base balance is upset, whether anoxia occurred, the level of anoxia, and so forth.

[4] = tested on: bleomycin-induced mouse lung disease model; test: Lung HE pathological analysis (Ashcroft score), 24-h modeling; conditions: for HE score (pulmonary fibrosis, Ashcroft): 15 fields of view
Experimental: as §1, §2
(§6) 1. […] Specifically, a mold was prepared first, and then the tissue was laid flat at the bottom of the mold; after the section face was arranged facedown, the embedding box cover was put on the mold; molten wax was poured into the mold until it overflowed the mold, and then the mold was gently lifted up and laid flat in a freezing platform; after being rapidly cooled and frozen for about 10 min, the mold was took out. • 6) Sectioning method
(§7) 2. HE staining • 1) A flat section was selected for HE staining. • 2) The section was dewaxed in xylene I for 20 min. • 3) The section was dewaxed in xylene II for 20 min. • 4) The section was soaked in absolute ethanol for 10 min. • 5) Stepwise rehydrating, in absolute ethanol for 5 min, in 90% ethanol for 5 min, in 80% ethanol for 5 min, and in […] for 5 min; and a water wash. • 6) Staining with hematoxylin for 3-5 min. A water wash. • 7) Differentiating with 1% HCl-[…] for 5-10 s. A water wash, and bluing. • 8) Staining with eosin for 30-60 s. A water wash. • 9) Washing with 80% ethanol for 3-5 s, with 95% ethanol for 3-5 s, and with absolute ethanol for 3-5 s. • 10) Coverslipping with neutral resin, observing under a microscope, and photographing.
(§8) HE sectioning: 3 sections were consecutively made; flat sections of complete tissue were selected for HE staining; each of the sections was photographed in 3 randomly selected fields of view at 200x magnification. The obtained images were scored.
(§9) The general standard Ashcroft scoring method for pulmonary fibrosis tissues was adopted in HE scoring. The HE pathological analysis is an outcome evaluation for irreversible pulmonary fibrosis that develops in interstitial lung disease models.
For 5 animals from each of the 24-h modeling groups, a total of 15 HE fields of view were scored. […] According to the scoring criteria, a score below 3 points indicates there has been no significant structural change accompanying in the lung tissues.

[5] = tested on: bleomycin-induced mouse lung disease model; test: Lung HE pathological analysis (Ashcroft score), 7-d modeling; conditions: for HE score (pulmonary fibrosis, Ashcroft): 18 fields of view
Experimental: as §5, §2, §6, §7, §8, §9
For 6 animals from each of the 7-d modeling groups, a total of 18 HE fields of view were scored.

[6] = 24-h modeling, BS 90 mg/kg gavage daily
[7] = 7-d modeling, BSH: BS 180 mg/kg gavage daily
[8] = 7-d modeling, BSL: BS 36 mg/kg gavage daily
[9] = 7-d modeling, BSM: BS 90 mg/kg gavage daily
[10] = Dex 1-1.5 mg/kg i.p. every two days
[11] = 24-h modeling, Dex 1-1.5 mg/kg i.p. every two days
[12] = 7-d modeling, Dex 1-1.5 mg/kg i.p. every two days

Molecule `O=c1c2ccccc2[se]n1CCCCn1[se]c2ccccc2c1=O` [BS, 1,4-[bis(1,2-benzisoselenazol-3(2H)-one)]butane] has a Body weight ([1]; BS 90 mg/kg gavage daily, D1) of 20.34 ± 1.01 g, a Body weight ([1]; BS 90 mg/kg gavage daily, D7) of 19.50 ± 1.35 g and a Body weight ([1]; BS 90 mg/kg gavage daily, D14) of 18.84 ± 1.70 g. For the same molecule, the Body weight ([1]; BS 90 mg/kg gavage daily, D21) was 18.52 ± 1.75 g, the Body weight ([1]; BS 90 mg/kg gavage daily, D28) was 18.30 ± 1.60 g and the Body weight ([1]; BS 90 mg/kg gavage daily, D35) was 18.02 ± 1.75 g. The “Body weight decreased by” value ([1]; BS 90 mg/kg gavage daily) was 13.58%, the Lung coefficient ([2]; BS 90 mg/kg gavage daily) was 0.89±0.04% and the Spleen coefficient ([2]; BS 90 mg/kg gavage daily) was 0.37±0.02%. For the same molecule, the “Effect on spleen coefficient (in words)” value ([2]; BS 90 mg/kg, effect better than that of Dex) was “significantly decrease the spleen coefficient”, the “Effect on blood gas analysis (in words)” value ([3]; BS 90 mg/kg and 180 mg/kg, better than Dex (1-1.5 mg/kg) in general) was “significant improvements to the function of pulmonary ventilation and the acid-base balance states” and the BEect ([3]; BSH: BS 180 mg/kg gavage daily) was -8.00 ± 1.10 mmol/L. The “HCO3^-” value ([3]; BSH: BS 180 mg/kg gavage daily) was 27.82 ± 0.91 mmol/L, the PCO2 ([3]; BSH: BS 180 mg/kg gavage daily) was 32.82±2.02 mmHg and the BEect ([3]; BSL: BS 36 mg/kg gavage daily) was -15.67 ± 4.13 mmol/L. For the same molecule, the “HCO3^-” value ([3]; BSL: BS 36 mg/kg gavage daily) was 22.30 ± 1.51 mmol/L, the PCO2 ([3]; BSL: BS 36 mg/kg gavage daily) was 27.45±1.35 mmHg and the BEect ([3]; BSM: BS 90 mg/kg gavage daily) was -9.83 ± 0.75 mmol/L. The “HCO3^-” value ([3]; BSM: BS 90 mg/kg gavage daily) was 30.57 ± 1.42 mmol/L, the PCO2 ([3]; BSM: BS 90 mg/kg gavage daily) was 31.62±1.34 mmHg and the “Effect on lung tissue structure, HE (in words)” value ([4]; 24-h model, early stage of pulmonary fibrosis, BS 90 mg/kg) was “significantly reduce structural changes in lung tissues”. The “HE score and benefit rate, >4 points (fields/total)” value [4, 6] was 3/15, the “HE score and benefit rate, >4 points (percent of fields)” value [4, 6] was 20.0% and the “HE score and benefit rate, >5, points (fields/total)” value [4, 6] was 0/15 0/15. The “HE score and benefit rate, >5, points (percent of fields)” value [4, 6] was 0% 0%, the “HE score and benefit rate, ≥3 points (fields/total)” value [4, 6] was 12/15 and the “HE score and benefit rate, ≥3 points (percent of fields)” value [4, 6] was 80.0%. For the same molecule, the “HE score (pulmonary fibrosis, Ashcroft)” value [4, 6] was 3.00 ± 0.65, the “Clear lung tissue damage (HE score up to 5 points), in words” value ([4]; 24-h modeling, after 35 days of administration, Dex 1-1.5 mg/kg, BS 90 mg/kg) was “no clear lung tissue damage occurred” and the “Effect on lung tissue structure, HE (in words)” value ([5]; 7-d model, formation stage, BSL (36 mg/kg), BSM (90 mg/kg) and BSH (180 mg/kg)) was “significantly reduce structural changes in lung tissues”. For the same molecule, the “Effect against ECM deposition (in words)” value ([5]; 7-d model, BSH, 180 mg/kg) was “significant synergetic effect against ECM deposition”, the “Clear lung tissue damage or pathological tissue change, in words” value ([5]; 7-d modeling, BSH: BS 180 mg/kg) was “did not show clear lung tissue damage or pathological tissue change” and the “HE score and benefit rate, ≥4 points (fields/total); pathological tissue change” value [5, 7] was 0/18. The “HE score and benefit rate, ≥4 points (percent of fields); probability of pathological tissue change” value [5, 7] was 0%, the “HE score and benefit rate, ≥5 points (fields/total); clear lung tissue damage” value [5, 7] was 0/18 and the “HE score and benefit rate, ≥5 points (percent of fields); probability of clear lung tissue damage” value [5, 7] was 0%. For the same molecule, the “HE score and benefit rate, ≥6 points (fields/total)” value [5, 7] was 0/18, the “HE score and benefit rate, ≥6 points (percent of fields)” value [5, 7] was 0% and the “Lung HE histology description” value [5, 7] was “substantially complete lung tissue structures”. The “HE score (pulmonary fibrosis, Ashcroft)” value [5, 7] was 1.48 ± 0.78, the “HE score and benefit rate, ≥4 points (fields/total); pathological tissue change” value [5, 8] was 15/18 and the “HE score and benefit rate, ≥4 points (percent of fields); probability of pathological tissue change” value [5, 8] was 83.3%. For the same molecule, the “HE score and benefit rate, ≥5 points (fields/total); clear lung tissue damage” value [5, 8] was 6/18, the “HE score and benefit rate, ≥5 points (percent of fields); probability of clear lung tissue damage” value [5, 8] was 33.3% and the “HE score and benefit rate, ≥6 points (fields/total)” value [5, 8] was 1/18. For the same molecule, the “HE score and benefit rate, ≥6 points (percent of fields)” value [5, 8] was 5.6%, the “Lung HE histology description” value [5, 8] was “relatively better lung structures than the Model group” and the “HE score (pulmonary fibrosis, Ashcroft)” value [5, 8] was 4.28 ± 0.83. For the same molecule, the “HE score and benefit rate, ≥4 points (fields/total); pathological tissue change” value [5, 9] was 5/18, the “HE score and benefit rate, ≥4 points (percent of fields); probability of pathological tissue change” value [5, 9] was 27.8% and the “HE score and benefit rate, ≥5 points (fields/total); clear lung tissue damage” value [5, 9] was 1/18. For the same molecule, the “HE score and benefit rate, ≥5 points (percent of fields); probability of clear lung tissue damage” value [5, 9] was 5.6%, the “HE score and benefit rate, ≥6 points (fields/total)” value [5, 9] was 0/18 and the “HE score and benefit rate, ≥6 points (percent of fields)” value [5, 9] was 0%. The “Lung HE histology description” value [5, 9] was “much better lung structures than the Model group” and the “HE score (pulmonary fibrosis, Ashcroft)” value [5, 9] was 3.00 ± 0.84.
`C[C@@H]1C[C@H]2[C@@H]3CCC4=CC(=O)C=C[C@]4(C)[C@@]3(F)[C@@H](O)C[C@]2(C)[C@@]1(O)C(=O)CO` [Dex, dexamethasone, reference compound] showed a Body weight ([1]; Dex 1-1.5 mg/kg i.p. every two days, D1) of 19.92 ± 1.38 g, a Body weight ([1]; Dex 1-1.5 mg/kg i.p. every two days, D7) of 20.02 ± 0.96 g and a Body weight ([1]; Dex 1-1.5 mg/kg i.p. every two days, D14) of 19.24 ± 0.95 g. The Body weight ([1]; Dex 1-1.5 mg/kg i.p. every two days, D21) was 18.90 ± 0.78 g, the Body weight ([1]; Dex 1-1.5 mg/kg i.p. every two days, D28) was 18.56 ± 0.71 g and the Body weight ([1]; Dex 1-1.5 mg/kg i.p. every two days, D35) was 18.36 ± 0.66 g. For the same molecule, the “Body weight decreased by” value [1, 10] was 8.48%, the Lung coefficient [2, 10] was 0.93±0.09% and the Spleen coefficient [2, 10] was 0.41±0.06%. The BEect [3, 10] was -8.50 ± 1.05 mmol/L, the “HCO3^-” value [3, 10] was 27.82 ± 1.08 mmol/L and the PCO2 [3, 10] was 33.60±1.92 mmHg. For the same molecule, the “HE score and benefit rate, >4 points (percent of fields)” value [4, 11] was 0%, the “HE score and benefit rate, >5, points (percent of fields)” value [4, 11] was 0% 0% and the “HE score and benefit rate, ≥3 points (percent of fields)” value [4, 11] was 53.3%. The “HE score (pulmonary fibrosis, Ashcroft)” value [4, 11] was 2.53 ± 0.52, the “HE score and benefit rate, ≥4 points (fields/total); pathological tissue change” value [5, 12] was 7/18 and the “HE score and benefit rate, ≥4 points (percent of fields); probability of pathological tissue change” value [5, 12] was 38.9%. For the same molecule, the “HE score and benefit rate, ≥6 points (fields/total)” value [5, 12] was 0/18, the “HE score and benefit rate, ≥6 points (percent of fields)” value [5, 12] was 0% and the “HE score (pulmonary fibrosis, Ashcroft)” value [5, 12] was 3.28 ± 0.83.
